The experiment addresses recombinant mTOR (Homo sapiens, UniProt P42345). Briefly: In Vitro mTOR Kinase Assay (Echo), Test (a)(ii) (AlphaScreen). The conditions noted are these: Echo acoustic dispensing. The class given is biochemical. Here is the method:
(a)(ii) In Vitro mTOR Kinase Assay (Echo)
The assay used AlphaScreen technology (Gray et al., Analytical Biochemistry, 2003, 313: 234-245) to determine the ability of test compounds to inhibit phosphorylation by recombinant mTOR.
The HEK293 FLAG-tagged mTOR (1362-2549) stable cell line was routinely maintained at 37° C. with 5% CO2 up to a confluency of 70-90% in Dulbecco's modified Eagle's growth medium (DMEM; Invitrogen Limited, Paisley, UK Catalogue No. 41966-029) containing 10% heat-inactivated foetal calf serum (FCS; Sigma, Poole, Dorset, UK, Catalogue No. F0392), 1% L-glutamine (Gibco, Catalogue No. 25030-024) and 2 mg/ml Geneticin (G418 sulfate; Invitrogen Limited, UK Catalogue No. 10131-027). Following expression in the mammalian HEK293 cell line, expressed protein was purified using the FLAG epitope tag using standard purification techniques.
Aliquots ([…]) of each compound dilution were acoustically […] using a Labcyte Echo 550 into a well of a Greiner 384-well low volume (LV) white polystyrene plate (Greiner Bio-one). A […] mixture of recombinant purified mTOR enzyme, 1 μM biotinylated peptide substrate (Biotin-Ahx-[…]NH2; Bachem UK Ltd), ATP (20 μM) and a buffer solution [comprising Tris-HCl pH7.4 buffer (50 mM), EGTA (0.1 mM), bovine serum albumin (0.5 mg/mL), DTT (1.25 mM) and manganese chloride (10 mM)] was incubated at room temperature for […].
These assay solutions were incubated for 2 hours at room temperature.
Each reaction was stopped by the addition of […] of a mixture of EDTA (50 mM), bovine serum albumin (BSA; 0.5 mg/mL) and Tris-HCl pH7.4 buffer (50 mM) containing
p70 S6 Kinase (T389) 1A5 Monoclonal Antibody (Cell Signalling Technology, Catalogue No. 9206B) and AlphaScreen Streptavidin donor and Protein A acceptor beads (200 ng; Perkin Elmer, Catalogue No. 6760002B and 6760137R respectively) were added and the assay plates were left overnight at room temperature in the dark. The resultant signals arising from laser light excitation at 680 nm were read using a Packard Envision instrument.
The phosphorylated biotinylated peptide that is associated with AlphaScreen Streptavidin donor beads forms a complex with the p70 S6 Kinase (T389) 1A5 Monoclonal Antibody that is associated with Alphascreen Protein A acceptor beads. Upon laser light excitation at 680 nm, the donor bead : acceptor bead complex produces a signal that can be measured. Accordingly, the presence of mTOR kinase activity results in an assay signal. In the presence of an mTOR kinase inhibitor, signal strength is reduced. mTOR enzyme inhibition for a given test compound was expressed as an IC50 value.

What is called IC50 is the concentration needed to halve the response being measured.

Sequence of recombinant mTOR (P42345 1362-2549): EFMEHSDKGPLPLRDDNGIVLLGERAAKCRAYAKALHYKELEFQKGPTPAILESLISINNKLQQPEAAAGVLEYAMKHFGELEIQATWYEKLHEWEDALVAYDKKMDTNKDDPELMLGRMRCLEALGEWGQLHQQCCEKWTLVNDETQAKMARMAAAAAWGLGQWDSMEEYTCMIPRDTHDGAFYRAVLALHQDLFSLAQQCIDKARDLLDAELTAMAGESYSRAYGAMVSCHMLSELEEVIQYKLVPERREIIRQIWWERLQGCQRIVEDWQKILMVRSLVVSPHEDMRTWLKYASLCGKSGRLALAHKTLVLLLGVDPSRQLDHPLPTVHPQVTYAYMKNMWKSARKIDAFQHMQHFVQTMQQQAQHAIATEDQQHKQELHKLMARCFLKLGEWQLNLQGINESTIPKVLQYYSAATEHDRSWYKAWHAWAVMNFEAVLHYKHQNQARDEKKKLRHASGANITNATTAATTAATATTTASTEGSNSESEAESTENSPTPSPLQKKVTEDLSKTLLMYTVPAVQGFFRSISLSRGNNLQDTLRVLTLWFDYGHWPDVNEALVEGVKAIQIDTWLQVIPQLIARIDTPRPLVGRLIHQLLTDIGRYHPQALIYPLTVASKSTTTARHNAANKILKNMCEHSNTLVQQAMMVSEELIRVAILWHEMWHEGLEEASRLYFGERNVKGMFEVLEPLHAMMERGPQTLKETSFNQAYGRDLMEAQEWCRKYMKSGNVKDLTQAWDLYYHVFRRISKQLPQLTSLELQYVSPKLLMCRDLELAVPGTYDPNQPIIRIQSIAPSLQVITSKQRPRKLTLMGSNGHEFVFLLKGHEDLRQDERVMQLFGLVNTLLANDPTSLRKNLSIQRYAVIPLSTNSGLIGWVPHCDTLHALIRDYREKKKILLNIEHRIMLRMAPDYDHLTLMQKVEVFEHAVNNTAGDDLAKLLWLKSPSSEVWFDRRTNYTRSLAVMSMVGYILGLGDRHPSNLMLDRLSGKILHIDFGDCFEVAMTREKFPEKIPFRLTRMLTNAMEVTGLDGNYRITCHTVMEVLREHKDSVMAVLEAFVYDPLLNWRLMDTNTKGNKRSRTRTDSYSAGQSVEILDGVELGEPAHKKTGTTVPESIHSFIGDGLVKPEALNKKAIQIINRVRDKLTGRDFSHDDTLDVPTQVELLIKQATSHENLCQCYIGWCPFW

As to `C[C@H]1COCCN1c1cc(CS(C)(=O)=O)nc(-c2ccc(NC(=S)Nc3ccccc3)cc2)n1` [Example 1b, 1-[4-[4-[(3S)-3-methylmorpholin-4-yl]-6-(methylsulfonylmethyl)pyrimidin-2-yl]phenyl]-3-phenyl-thiourea], the IC50 stood at 81.6 nM.

The values above are taken from US8138183B2, “Morpholino pyrimidine derivatives used in diseases linked to mTOR kinase and/or PI3K” (AstraZeneca AB, priority 2007, dated 2012).
